Experimental data published in patent US20240397947A1 (priority 2021, published 2024).

Experiments:
Format in all cases: in vivo
Xanthomonas orycea = test: Comparison of SDHI fungicides on Xanthomonas orycea / rice / preventative (bacterial blight of rice); conditions: for Efficacy (%): rice cv. Balilla, preventative spray, 14 days incubation
Description: 3 week old rice plants cv. Balilla were treated with the formulated test compound in a spray chamber. Two days after application rice plants were infected by cutting the upper leaf level and the bacteria suspension applied on the cutting edges. After an incubation period of 14 days at 23° C. and 80% relative humidity, a visual assessment of the disease level was performed.

Xanthomonas campestris = test: Effect on Xanthomonas campestris on Zinnia, foliar spray; conditions: for Efficacy 12 DAT* (%): 1 spray application, 12 days after treatment, rate per substance as in Table 3
Description: Vegetatively mature zinnia plants were treated with pydiflumetofen treatments by foliar spray (for Xanthomonas or Pseudomonas spp.). One to two days post treatment, the plants were atomized with a bacterial suspension (1×10^8 cfu/mL, determined with a spectrometer) and maintained at 100% relative humidity for 24 to 48 hours to promote infection. The plants were then maintained in a greenhouse or outdoor shade structure and disease incidence and severity recorded, as well as plant health and fresh weight if applicable.

Xanthomonas perforans = test: Greenhouse test on tomato plants inoculated with Xanthomonas perforans (tomato bacterial spot), injured leaf area; conditions: up to 18 days after inoculation
Description: The experiment was carried out in a greenhouse in the Olericulture Sector of the Federal University of Goiás. The location has temperature and humidity control. Tomato seedlings cv. Totalle with two true leaves were transplanted into 1 L pots containing professional growing media. Two days after transplanting, the first application of the substances was carried out. Bion (acibenzolar-S-methyl, 25 g product/ha—12.5 g ai/ha), Miravis (pydiflumetofen, 0.60 kg product/ha—120 g ai/ha), Kocide (copper hydroxide, 1.50 kg product/ha) and Kasumin (kasugamycin, 2 L product/ha) were evaluated. The untreated control received only water. For application, the pots were placed on the floor and spraying was carried out using a spray device (having 6 nozzles with 0.5 m spacing between nozzles) with a pressurized CO2 sprayer and a spray volume of 300 L/ha.
The applications were carried out on days 1, 7 and 14. On day 9 (between the second and third applications), inoculation with a Xanthomonas perforans isolate was performed. The plants were uniformly sprayed once over all leaves with a suspension of the pathogen at a concentration of […] colony forming units per millilitre (cfu/mL). Three evaluations were performed at 6, 13 and 18 days after inoculation (DAI), and the percentage of injured leaf (area of leaf with bacterial spot) area was calculated.

Ralstonia spp. = test: Effect on Ralstonia spp. on Geranium, drench, wilt
Description: Vegetatively mature geranium plants were treated with pydiflumetofen treatments by drench (Ralstonia spp.). One to two days post treatment, the inoculum was applied as a soil-drench. The plants were then maintained in a greenhouse or outdoor shade structure and disease incidence and severity were recorded.

| Structure (SMILES) | Efficacy (%) (Xanthomonas orycea; 6 Mg ai/L) | Efficacy (%) (Xanthomonas orycea; 20 Mg ai/L) | Efficacy (%) (Xanthomonas orycea; 60 Mg ai/L) | Efficacy 12 DAT* (%) (Xanthomonas campestris) | control of Xanthomonas perforans (in words) (Xanthomonas perforans) | control of Xanthomonas campestris (in words) (Xanthomonas campestris; spray) | control of Xanthomonas orycea (in words) (Xanthomonas orycea; 6 mg ai/L) | control of Xanthomonas orycea (in words) (Xanthomonas orycea; 20 to 60 mg ai/L) | control or suppression of Ralstonia spp. (in words) (Ralstonia spp.) | % Wilt 14 DAT (Ralstonia spp.; 14 DAT) [%] | % efficacity vs. inoculated check, 14 DAT (Ralstonia spp.; 14 DAT) [%] | % Wilt 28 DAT (Ralstonia spp.; 28 DAT) [%] | % efficacity vs. inoculated check, 28 DAT (Ralstonia spp.; 28 DAT) [%] |
| --- | --- | --- | --- | --- | --- | --- | --- | --- | --- | --- | --- | --- | --- |
| CC(C)c1ccc(Cl)cc1CN(C(=O)c1c(C(F)F)nn(C)c1F)C1CC1 [Isoflucypram] | 0 | 0 | 0 | – | – | – | – | – | – | – | – | – | – |
| O=C(Nc1ccccc1-c1ccc(Cl)cc1)c1cccnc1Cl [Boscalid] | 0 | 0 | 0 | – | – | – | – | – | – | – | – | – | – |
| Cn1cc(C(=O)Nc2cccc3c2[C@@H]2CC[C@H]3C2=C(Cl)Cl)c(C(F)F)n1 (racemic) [Benzovindiflupyr, reference compound] | – | – | – | 63 | – | – | – | – | – | – | – | – | – |
| CON(C(=O)c1cn(C)nc1C(F)F)C(C)Cc1c(Cl)cc(Cl)cc1Cl (centres unmarked) [Pydiflumetofen, 3-(difluoromethyl)-N-methoxy-1-methyl-N-[1-methyl-2-(2,4,6-trichloro-phenyl)ethyl]-1H-pyrazole-4-carboxamide] | 13 | 72 | 99 | 84 | good control | good control | marginal effect | good control | control or suppression | 3.5 | 84 | 18 | 87 |
| Cn1cc(C(=O)Nc2ccccc2-c2cc(F)c(F)c(F)c2)c(C(F)F)n1 [Fluxapyroxad] | 0 | 0 | 0 | – | – | – | – | – | – | – | – | – | – |
